One block for each molecule: values may come before it.
How the values were obtained:
[1] = target: T1, Pichia stipitis xylose reductase (Ps-XR) (Scheffersomyces stipitis, UniProt P31867); test: NADPH oxidation at […] nm, non-linear regression, substrate-inhibition model with Hill coefficient; type: biochemical; details: NADPH as cofactor, Hill coefficient n = 3.51, 100 mM phosphate pH 7.0, 30 °C, unit of Ki not printed (Km in mM)
T1 construct: gene XYL1; XYL1 gene product overproduced in S. cerevisiae TMB3260 (PGK1p-XYL1); purified by Red-Sepharose and gel filtration; no tag mentioned
T1 sequence (P31867 1-318): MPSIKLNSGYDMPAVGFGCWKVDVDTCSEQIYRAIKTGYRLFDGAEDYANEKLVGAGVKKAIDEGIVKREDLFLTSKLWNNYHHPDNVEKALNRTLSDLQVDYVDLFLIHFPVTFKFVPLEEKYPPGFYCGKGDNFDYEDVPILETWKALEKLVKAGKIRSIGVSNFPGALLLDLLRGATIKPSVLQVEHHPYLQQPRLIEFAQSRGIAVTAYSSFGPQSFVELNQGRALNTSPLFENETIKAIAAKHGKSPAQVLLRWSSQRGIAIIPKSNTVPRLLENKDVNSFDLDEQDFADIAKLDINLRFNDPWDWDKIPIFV

[2] = substrate: O=Cc1ccc(CO)o1; test: purified protein; type: biochemical, Scheffersomyces stipitis; details: NADPH as cofactor, substrate-inhibition model, 100 mM phosphate pH 7.0, 30 °C

- Ki [1]: 95.0
Molecule: O=Cc1ccc(CO)o1 [HMF]

B1: Pichia stipitis xylose reductase (Ps-XR) (Scheffersomyces stipitis CBS 6054) (protein)
chain: T1 sequence (P31867 1-318)
notes: XYL1 gene product overproduced in S. cerevisiae TMB3260 (PGK1p-XYL1); purified by Red-Sepharose and gel filtration; no tag mentioned
- Km [2]: 40 mM

Reference: PMC2464581, “Pichia stipitis xylose reductase helps detoxifying lignocellulosic hydrolysate by reducing 5-hydroxymethyl-furfural (HMF)” (Biotechnology for Biofuels, 2008)
